Experimental data from PMC5829251, “NAD^+ analog reveals PARP-1 substrate-blocking mechanism and allosteric communication from catalytic center to DNA-binding domains” (Nature Communications, 2018).
Entries after “also recorded” stand apart in the source; their conditions may differ.

How the values were obtained:
Type in all cases: binding
[1] = biological target: T1, PARP-1 WT (Homo sapiens, UniProt P09874); test: Fluorescence polarization DNA affinity measurement assay; details: presence versus absence of compound
T1 construct: Full-length PARP-1 WT (residues 1–1014) was cloned in pET28 vector; made in house; host or cells: E. coli
T1 sequence (P09874 whole entry, the tested form may be a part): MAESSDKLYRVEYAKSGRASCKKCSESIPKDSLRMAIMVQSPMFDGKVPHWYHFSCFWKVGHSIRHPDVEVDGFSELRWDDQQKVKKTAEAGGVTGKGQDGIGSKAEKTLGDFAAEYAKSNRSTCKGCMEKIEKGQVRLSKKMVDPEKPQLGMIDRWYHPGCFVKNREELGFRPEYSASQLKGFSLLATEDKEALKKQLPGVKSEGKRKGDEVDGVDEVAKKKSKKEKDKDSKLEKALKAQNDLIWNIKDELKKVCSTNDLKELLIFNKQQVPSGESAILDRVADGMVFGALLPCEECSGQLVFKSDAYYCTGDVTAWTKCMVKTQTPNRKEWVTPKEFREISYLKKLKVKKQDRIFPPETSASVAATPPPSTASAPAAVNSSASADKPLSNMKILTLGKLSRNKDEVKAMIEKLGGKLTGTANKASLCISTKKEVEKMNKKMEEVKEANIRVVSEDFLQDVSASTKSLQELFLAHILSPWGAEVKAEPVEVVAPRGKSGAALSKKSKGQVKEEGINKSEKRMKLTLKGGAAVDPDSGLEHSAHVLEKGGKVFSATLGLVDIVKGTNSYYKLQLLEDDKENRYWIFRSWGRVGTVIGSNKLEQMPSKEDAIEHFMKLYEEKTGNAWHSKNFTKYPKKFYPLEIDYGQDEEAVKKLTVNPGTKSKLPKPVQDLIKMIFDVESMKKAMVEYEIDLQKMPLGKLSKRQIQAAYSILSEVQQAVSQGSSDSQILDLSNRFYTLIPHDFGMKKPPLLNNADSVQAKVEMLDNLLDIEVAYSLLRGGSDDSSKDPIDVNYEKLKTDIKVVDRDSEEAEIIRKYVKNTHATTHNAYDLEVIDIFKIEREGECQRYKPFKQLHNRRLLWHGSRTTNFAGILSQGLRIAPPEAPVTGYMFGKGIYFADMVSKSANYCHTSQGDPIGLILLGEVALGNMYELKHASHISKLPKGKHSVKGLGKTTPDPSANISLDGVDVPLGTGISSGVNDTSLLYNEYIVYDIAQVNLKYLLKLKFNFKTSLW
Procedure: (§1) For the DNA competition assay, 40 nM PARP-1 WT, or PARP-1 ΔHD, was incubated with 20 nM of dumbbell DNA with a central nick carrying an internal fluorescent FAM group (5′-GCT GAG C/FAMT/T CTGGTGAAGCTCAGCTCGCGGCAGCTGGTGCTGCCGCGA-3′) for 30 min at RT in 12 mM Hepes pH 8.0, 60 mM KCl, 8 mM MgCl2, 4% glycerol, 5.7 mM beta-mercaptoethanol, 0.05 mg per ml bovine serm albumin with or without BAD or benzamide (500 μM). A competitor unlabeled DNA of the same sequence was added at 100 nM and FP was measured over time on a VictorV plate reader (Perkin Elmer). For the DNA affinity measurement assay, increasing concentrations of PARP-1 WT were incubated for 30 min at RT with 5 nM of dumbbell DNA probe carrying a nick (described above) in the absence or presence of BAD or benzamide (100 μM) in the following buffer: 12 mM Hepes pH 8.0, 250 mM NaCl, 4% glycerol, 5.7 mM beta-mercaptoethanol, 0.05 mg per ml bovine serum albumin.

[2] = biological target: T2, full-length PARP-1 D766/D770A (Homo sapiens, UniProt P09874, D766A/D770A); test: ITC, full-length PARP-1 D766/D770A; details: for n (stoichiometry): FL D766/D770A; for KD / Kd: FL D766/D770A 40 μM, without DNA, compound 525 μM titrated, 25°C
T2 construct: Full-length PARP-1 WT (residues 1–1014) was cloned in pET28 vector and site-directed mutagenesis was performed; made in house; host or cells: E. coli
T2 sequence (P09874 whole entry D766A/D770A, the tested form may be a part): as the sequence (P09874 whole entry, the tested form may be a part) above, with D766A, D770A counted along it
Procedure: (§2) ITC experiments were performed using a MicroCal iTC200 calorimeter (GE Healthcare). BAD or benzamide at 525 μM was titrated into PARP-1 protein (50 μM for CAT WT and CAT ΔHD, 40 μM for full-length PARP-1 WT and mutants) or PARP-1 protein with DNA (20–40 μM) at 25°C. Prior to the experiment, proteins and DNA were dialyzed in 25 mM Hepes pH 8.0, 150 mM NaCl, 1 mM EDTA, and 0.1 mM TCEP. BAD and benzamide were diluted in the dialysis buffer. PARP-1/DNA complexes were assembled and incubated at RT for 30 min prior to performing the experiment. Experiments were typically designed as follows: a first injection of 0.2 μL was followed by 16 injections of 2.5 μL with a spacing of 100 s between injections. Excess heat upon each injection was integrated using an automatically adjusted base line and derived values corrected by heat of dilution. Data analysis and curve fitting were conducted using Origin 7 software. The ITC experiment for each sample was performed either two (PARP-1 WT with benzamide, PARP-1 E763/D766/D770A with benzamide, PARP-1 D766/D770A with BAD) or three times (the remaining eight samples). Table 2 lists the average KD value and stoichiometry (n) for the replicates, and the reported errors are the calculated standard deviations (representing the range of values for experiments repeated two times). We anticipate that the sub-stoichiometric n values for CAT constructs results from either the active fraction being < 100%, or the protein concentration determination being not entirely accurate. The analysis of full-length PARP-1 yielded n values around the expected value of 1.

[3] = biological target: T3, PARP-1 CAT ΔHD (Homo sapiens, UniProt P09874); test: ITC, PARP-1 CAT ΔHD; details: for n (stoichiometry): CAT ΔHD; for Kd: CAT ΔHD 50 μM, compound 525 μM titrated, 25°C
T3 construct: a pET28 construct coding for PARP-1 residues 661-1011; made in house; host or cells: E. coli
T3 sequence (P09874 with tags, fused parts or gaps): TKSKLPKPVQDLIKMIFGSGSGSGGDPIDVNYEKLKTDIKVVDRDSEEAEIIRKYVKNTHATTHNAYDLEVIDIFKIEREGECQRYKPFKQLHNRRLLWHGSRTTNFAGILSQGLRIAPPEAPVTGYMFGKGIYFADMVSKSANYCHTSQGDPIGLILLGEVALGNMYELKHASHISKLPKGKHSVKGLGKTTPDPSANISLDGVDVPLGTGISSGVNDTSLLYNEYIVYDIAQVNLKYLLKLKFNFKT
Procedure: as §2

[4] = biological target: T4, PARP-1 CAT domain WT (Homo sapiens, UniProt P09874); test: Differential scanning fluorimetry (DSF), PARP-1 CAT WT; details: for change of apparent TM of PARP-1 CAT WT (evidence of binding): 5 μM protein, various amounts of compound; for TM: in °C (unit assumed)
T4 construct: The PARP-1 CAT WT (residues 661–1014) was cloned in pET28 vector; made in house; host or cells: E. coli
T4 sequence (P09874 661-1014): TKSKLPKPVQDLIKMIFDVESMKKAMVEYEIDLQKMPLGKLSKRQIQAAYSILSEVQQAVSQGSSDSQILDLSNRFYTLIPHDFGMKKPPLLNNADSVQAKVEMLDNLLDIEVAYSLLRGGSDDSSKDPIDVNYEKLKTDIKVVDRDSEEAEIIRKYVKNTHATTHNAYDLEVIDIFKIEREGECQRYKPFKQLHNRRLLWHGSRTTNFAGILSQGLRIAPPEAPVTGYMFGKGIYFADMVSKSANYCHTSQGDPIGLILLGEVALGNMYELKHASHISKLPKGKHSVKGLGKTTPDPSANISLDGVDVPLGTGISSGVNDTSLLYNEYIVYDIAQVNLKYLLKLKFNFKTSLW
Procedure: (§3) DSF experiments were performed as described, [13] using 5 µM protein, 2.5 µM DNA when indicated and various concentrations of compound (BAD, carba-NAD^+, benzamide, and ADP-ribose) as indicated in Fig. 1 and Fig. 3. Experiments were performed on a Roche LightCycler 480 RT-PCR. Reactions including DNA were performed with a 26- or 28-base pair (bp) unphosphorylated oligonucleotide for PARP-1, a 28-bp 5´-phosphorylated (5´P) oligonucleotide for PARP-2, and a 47-bp oligonucleotide including a central 5´P nick for PARP-3^13 in the following buffer: 25 mM Hepes pH 8.0, 150 mM NaCl, 1 mM EDTA, and 0.1 mM TCEP. Reactions with PARP-3 were conducted at lower ionic strength to allow binding to DNA as described (25 mM Hepes pH 8.0, 50 mM NaCl, 1 mM EDTA and 0.1 mM TCEP)[13]. ΔTM values were calculated by subtracting the TM determined for the protein in the absence of compound from the TM determined in the presence of compound. Experiments were performed in triplicate and a Boltzmann sigmoid was fit to the data to determine the TM values (KaleidaGraph).

[5] = biological target: T5, PARP-1 CAT WT (Homo sapiens, UniProt P09874); test: Isothermal titration calorimetry (ITC), PARP-1 CAT WT
T5 construct: The PARP-1 CAT WT (residues 661–1014) was cloned in pET28 vector; made in house; host or cells: E. coli
T5 sequence (P09874 661-1014): as above
Procedure: as §2

[6] = biological target: T6, full-length PARP-1 E763/D766/D770A (Homo sapiens, UniProt P09874, D766A/D770A/E763A); test: ITC, full-length PARP-1 E763/D766/D770A; details: for n (stoichiometry): FL E763/D766/D770A; for KD / Kd: FL E763/D766/D770A 40 μM, without DNA, compound 525 μM titrated, 25°C
T6 construct: Full-length PARP-1 WT (residues 1–1014) was cloned in pET28 vector and site-directed mutagenesis was performed; made in house; host or cells: E. coli
T6 sequence (P09874 whole entry E763A/D766A/D770A, the tested form may be a part): as the sequence (P09874 whole entry, the tested form may be a part) above, with E763A, D766A, D770A counted along it
Procedure: as §2

[7] = biological target: T1, PARP-1 WT; test: Fluorescence polarization DNA competition assay, PARP-1 WT; details: 40 nM PARP-1 WT, 20 nM labeled DNA, compound 500 μM, competitor 100 nM
Procedure: as §1

[8] = biological target: T3, PARP-1 CAT ΔHD; test: DSF, PARP-1 CAT ΔHD; details: for TM: CAT ΔHD 5 μM, in °C (unit assumed)
Procedure: as §3

[9] = Figure 1e, CAT WT 5 μM, compound 25 µM, TM without compound 51.58
[10] = Figure 1e, CAT WT 5 μM, compound 150 µM, TM without compound 51.58
[11] = Figure 1e, CAT WT 5 μM, compound 750 µM, TM without compound 51.58
[12] = Figure 1e, CAT WT 5 μM, compound 1500 µM, TM without compound 51.58
[13] = CAT WT 50 μM, compound 525 μM titrated, 25°C
[14] = Figure 1e, compound 25 µM, TM without compound 41.26
[15] = Figure 1e, compound 150 µM, TM without compound 41.26
[16] = Figure 1e, compound 750 µM, TM without compound 41.26
[17] = Figure 1e, compound 1500 µM, TM without compound 41.26

SMILES | increase in PARP-1 affinity for a DNA single-strand break [1] | n (stoichiometry) [2] | KD [2] | Kd [2] | n (stoichiometry) [3] | Kd [3] | change of apparent TM of PARP-1 CAT WT (evidence of binding) [4] | TM [4, 9] | TM [4, 10] | TM [4, 11] | TM [4, 12] | n (stoichiometry) [6] | KD [6] | Kd [6] | exchange of PARP-1 from labeled to unlabeled competitor DNA [7] | TM [8, 14] | TM [8, 15] | TM [8, 16] | TM [8, 17] | other results
NC(=O)c1cccc(C2OC(COP(=O)(O)OP(=O)(O)OCC3OC(n4cnc5c(N)ncnc54)C(O)C3O)C(O)C2O)c1 (stereo not shown) [BAD, benzamide adenine dinucleotide] | 10 fold | 0.96 + /− 0.10 | showed evidence of binding | 2490 nM | 0.63 + /− 0.09 | 5870 nM | neither BAD nor carba-NAD^+ changed the apparent TM; also recorded: did not show evidence of binding | 51.48 | 51.45 | 51.64 | 51.60 | 1.00 + /− 0.13 | showed evidence of binding | 380 nM | greatly prevented the exchange | 45.52 | 48.60 | 49.27 | 51.95 | increase in TM of PARP-1 CAT containing the HD ([4]; 4 mM BAD): no increase in TM; TM ([4]; Figure 1d, CAT WT 5 μM, compound 50 µM, TM without compound 51.23): 51.06; TM ([4]; Figure 1d, CAT WT 5 μM, compound 250 µM, TM without compound 51.23): 51.09; TM ([4]; Figure 1d, CAT WT 5 μM, compound 1250 µM, TM without compound 51.23): 51.30; TM ([4]; Figure 3d, PARP-1 CAT 5 μM, BAD 4 mM, TM without BAD 51.04): 51.21; KD [5, 13]: no measureable heat exchange; also recorded: No binding; calculated KD for BAD lower than observed for all other proteins ([6]; E763/D766/D770A versus all other proteins): about 10 fold; TM ([8]; Figure 1d, compound 50 µM, TM without compound 41.76): 47.02; TM ([8]; Figure 1d, compound 250 µM, TM without compound 41.76): 49.58; TM ([8]; Figure 1d, compound 1250 µM, TM without compound 41.76): 51.91; TM increase (ΔTM) of CAT ΔHD ([8]; at the highest concentration, 5 μM protein): 10 °C
NC(=O)c1ccccc1 [benzamide] | no effect | 0.81 + /− 0.14 | also bound to benzamide similarly | 2810 nM | 0.39 + /− 0.01 | 3210 nM | increased the TM | 52.53 | 54.28 | 54.86 | 57.12 | 0.89 + /− 0.07 | also bound to benzamide similarly | 2990 nM | did not affect PARP-1 release | 43.73 | 46.20 | 46.99 | 49.98 | n (stoichiometry) ([5]; CAT WT): 0.49 + /− 0.02; Kd [5, 13]: 3.79 µM; change of TM of CAT ΔHD (evidence of binding) ([8]; 5 μM protein, various amounts of compound): increased the TM
